Assay results: US6528093B1, “Sustained-release preparation” (Takeda Chemical Industries, Ltd., priority 1992, dated 2003)

Assay: Dissolution of peptide acetate in a dichloromethane solution of lactic acid-glycolic acid copolymer
Type: physicochemical
Conditions: 8.0 g dichloromethane

## CCNC(=O)[C@@H]1CCCN1C(=O)[C@H](CCCNC(=N)N)NC(=O)[C@H](CC(C)C)NC(=O)[C@@H](CC(C)C)NC(=O)[C@H](Cc1ccc(O)cc1)NC(=O)[C@H](CO)NC(=O)[C@H](Cc1c[nH]c2ccccc12)NC(=O)[C@H](Cc1c[nH]cn1)NC(=O)[C@@H]1CCC(=O)N1 [Leuprorelin acetate]
400 mg in 3.6 g lactic acid/glycolic acid=75/25 copolymer of Example 12 (GPC Mw 10,000, end-group Mn 4,300)
  dissolution in copolymer/dichloromethane solution: clear homogeneous solution
400 mg in 3.6 g lactic acid/glycolic acid=75/25 copolymer, GPC Mw 18,000, end-group Mn 30,000 (RG752-15057)
  dissolution in copolymer/dichloromethane solution: could not be successfully dissolved
